Laboratory results published in patent EP0538297B9, “ANTIVIRAL TETRAHYDROIMIDAZO 1,4]BENZODIAZEPIN-2-(THIO)ONES” (JANSSEN PHARMACEUTICA N.V., priority 1990, dated 1992).
Converted amounts (≈) assume the structure as drawn.

Legend:
in vitro = assay type: cell-based; conditions: human, mt-4 cells
Protocol: (§1) A rapid, sensitive and automated assay procedure was used for the in-vitro evaluation of anti-HIV agents. An […] T4-cell line, MT-4, which was previously shown (Koyanagi et al., Int. J. Cancer, 36, 445-451, 1985) to be highly susceptible to and permissive for HIV infection, served as the target cell line. Inhibition of the HIV-induced cytopathic effect was used as the end point. The viability of both HIV- and mock-infected cells was assessed spectrophotometrically via the in-situ reduction of 3-(4,5-dimethylthiazol-2-yl)-2,5-diphenyltetrazolium bromide (MTT). The 50% cytotoxic dose (CD50 in µg/ml) was defined as the concentration of compound that reduced the absorbance of the mock-infected control sample by 50%. The percent protection achieved by the compound in HIV-infected cells was calculated by the following formula: ((ODT )HIV - (ODC )HIV)/((ODC )MOCK - (ODC )HIV) [formula] expressed in %, whereby (ODT)HIV is the optical density measured with a given concentration of the test compound in HIV-infected cells; (ODC)HIV is the optical density measured for the control untreated HIV-infected cells; (ODC)MOCK is the optical density measured for the control untreated mock-infected cells; all optical density values were determined at 540 nm. The dose achieving 50% protection according to the above formula was defined as the 50% effective dose (ED50 in µg/ml). The ratio of CD50 to ED50 was defined as the selectivity index (SI).

HIV = experiment: Inhibition of HIV-induced cytopathic effect in MT-4 cells (MTT); assay type: cell-based; conditions: for EC50: Human immunodeficiency virus 1, MT4, dose achieving 50% protection of HIV-infected MT-4 cells, MTT, 540 nm, read-out: ED50 (50% effective dose); for SI (selectivity index): ratio of CD50 to ED50
Protocol: as §1

Row | SMILES | CC50 (in vitro) [µg/mL] | EC50 (HIV) [µg/mL] | SI (selectivity index) (HIV)
1 | CCC(=CCN1Cc2cc(Cl)cc3[nH]c(=O)n(c23)C[C@@H]1C)CC [compound 2] | > 10 | 0.032 (≈ 0.0958 µM) | >312
2 | CCC(=CCN1Cc2c(C)ccc3[nH]c(=O)n(c23)C[C@@H]1C)CC [compound 5, (+)-(S)-6-(3-ethyl-2-pentenyl)-4,5,6,7-tetrahydro-5,8-dimethylimidazo-[4,5,1-jk][1,4]benzodiazepin-2(1H)-one] | 14.3 (≈ 45.6 µM) | 0.038 (≈ 0.121 µM) | 370
3 | CCC(=CCN1Cc2cc(Cl)cc3[nH]c(=S)n(c23)C[C@@H]1C)CC.Cl [compound 7, (-)-(S)-9-chloro-6-(3-ethyl-2-pentenyl)-4,5,6,7-tetrahydro-5-methylimidazo[4,5,1-jk][1,4]benzodiazepine-2(1H)-thione monohydrochloride] | 5.2 | 0.006 | 850
